Assay results as given in PubChem BioAssay (NCI).
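Grown in 96-well plates, cells were treated for 48 hours with each compound at five concentrations. Insufficient inhibition: endpoint recorded as highest concentration tested. TGI denotes the concentration required for complete inhibition of growth.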

Key:
Assay in all cases: DTP human tumour cell line panel, 48 h
786-0 renal = tested on: 786-0 renal
A498 renal = tested on: A498 renal
A549 NSCLC = tested on: A549 NSCLC
ACHN renal = tested on: ACHN renal
BT-549 breast = tested on: BT-549 breast
CAKI-1 renal = tested on: CAKI-1 renal
CCRF-CEM leukemia = tested on: CCRF-CEM leukemia
COLO 205 colon = tested on: COLO 205 colon
DU-145 prostate = tested on: DU-145 prostate
EKVX NSCLC = tested on: EKVX NSCLC
HCC-2998 colon = tested on: HCC-2998 colon
HCT-116 colon = tested on: HCT-116 colon
HCT-15 colon = tested on: HCT-15 colon
HL-60(TB) leukemia = tested on: HL-60(TB) leukemia
HOP-62 NSCLC = tested on: HOP-62 NSCLC
HS 578T breast = tested on: HS 578T breast
HT29 colon = tested on: HT29 colon
IGROV1 ovarian = tested on: IGROV1 ovarian
K-562 leukemia = tested on: K-562 leukemia
KM12 colon = tested on: KM12 colon
LOX IMVI melanoma = tested on: LOX IMVI melanoma
M14 melanoma = tested on: M14 melanoma
MALME-3M melanoma = tested on: MALME-3M melanoma
MCF7 breast = tested on: MCF7 breast
MDA-MB-231 breast = tested on: MDA-MB-231 breast
MDA-MB-435 = tested on: MDA-MB-435
MDA-N = tested on: MDA-N
MOLT-4 leukemia = tested on: MOLT-4 leukemia
NCI-H226 lung = tested on: NCI-H226 lung
NCI-H23 lung = tested on: NCI-H23 lung
NCI-H460 lung = tested on: NCI-H460 lung
NCI-H522 lung = tested on: NCI-H522 lung
NCI/ADR-RES ovarian = tested on: NCI/ADR-RES ovarian
OVCAR-3 ovarian = tested on: OVCAR-3 ovarian
OVCAR-4 ovarian = tested on: OVCAR-4 ovarian
OVCAR-5 ovarian = tested on: OVCAR-5 ovarian
OVCAR-8 ovarian = tested on: OVCAR-8 ovarian
PC-3 prostate = tested on: PC-3 prostate
RPMI-8226 leukemia = tested on: RPMI-8226 leukemia
RXF 393 renal = tested on: RXF 393 renal
SF-268 CNS = tested on: SF-268 CNS
SF-295 CNS = tested on: SF-295 CNS
SF-539 CNS = tested on: SF-539 CNS
SK-MEL-2 melanoma = tested on: SK-MEL-2 melanoma
SK-MEL-28 melanoma = tested on: SK-MEL-28 melanoma
SK-MEL-5 melanoma = tested on: SK-MEL-5 melanoma
SK-OV-3 ovarian = tested on: SK-OV-3 ovarian
SN12C renal = tested on: SN12C renal
SNB-19 CNS = tested on: SNB-19 CNS
SNB-75 CNS = tested on: SNB-75 CNS
SR leukemia = tested on: SR leukemia
SW-620 colon = tested on: SW-620 colon
T-47D breast = tested on: T-47D breast
TK-10 renal = tested on: TK-10 renal
U251 CNS = tested on: U251 CNS
UACC-257 melanoma = tested on: UACC-257 melanoma
UACC-62 melanoma = tested on: UACC-62 melanoma
HOP-92 NSCLC = tested on: HOP-92 NSCLC
UO-31 renal = tested on: UO-31 renal

In the case of `COC(=O)Cc1ccc2c(cnn2-c2ccccc2)c1OC`, the TGI (786-0 renal) was greater than 10 µM, the TGI (A498 renal) was greater than 10 µM and the TGI (A549 NSCLC) was greater than 10 µM. It also gave a TGI (ACHN renal) greater than 10 µM, a TGI (BT-549 breast) greater than 10 µM and a TGI (CAKI-1 renal) greater than 10 µM. It also gave a TGI (CCRF-CEM leukemia) greater than 10 µM, a TGI (COLO 205 colon) greater than 10 µM and a TGI (DU-145 prostate) greater than 10 µM. The TGI (EKVX NSCLC) was greater than 10 µM, the TGI (HCC-2998 colon) was greater than 10 µM and the TGI (HCT-116 colon) was greater than 10 µM. The TGI (HCT-15 colon) was greater than 10 µM, the TGI (HL-60(TB) leukemia) was greater than 10 µM and the TGI (HOP-62 NSCLC) was greater than 10 µM. It also gave a TGI (HS 578T breast) greater than 10 µM, a TGI (HT29 colon) greater than 10 µM and a TGI (IGROV1 ovarian) greater than 10 µM. It also gave a TGI (K-562 leukemia) greater than 10 µM, a TGI (KM12 colon) greater than 10 µM and a TGI (LOX IMVI melanoma) greater than 10 µM. The TGI (M14 melanoma) was greater than 10 µM, the TGI (MALME-3M melanoma) was greater than 10 µM and the TGI (MCF7 breast) was greater than 10 µM. The TGI (MDA-MB-231 breast) was greater than 10 µM, the TGI (MDA-MB-435) was greater than 10 µM and the TGI (MDA-N) was greater than 10 µM. The TGI (MOLT-4 leukemia) was greater than 10 µM, the TGI (NCI-H226 lung) was greater than 10 µM and the TGI (NCI-H23 lung) was greater than 10 µM. For the same compound, the TGI (NCI-H460 lung) was greater than 10 µM, the TGI (NCI-H522 lung) was greater than 10 µM and the TGI (NCI/ADR-RES ovarian) was greater than 10 µM. For the same compound, the TGI (OVCAR-3 ovarian) was greater than 10 µM, the TGI (OVCAR-4 ovarian) was greater than 10 µM and the TGI (OVCAR-5 ovarian) was greater than 10 µM. It also gave a TGI (OVCAR-8 ovarian) greater than 10 µM, a TGI (PC-3 prostate) greater than 10 µM and a TGI (RPMI-8226 leukemia) greater than 10 µM. The TGI (RXF 393 renal) was greater than 10 µM, the TGI (SF-268 CNS) was greater than 10 µM and the TGI (SF-295 CNS) was greater than 10 µM. The TGI (SF-539 CNS) was greater than 10 µM, the TGI (SK-MEL-2 melanoma) was greater than 10 µM and the TGI (SK-MEL-28 melanoma) was greater than 10 µM. It also gave a TGI (SK-MEL-5 melanoma) greater than 10 µM, a TGI (SK-OV-3 ovarian) greater than 10 µM and a TGI (SN12C renal) greater than 10 µM. The TGI (SNB-19 CNS) was greater than 10 µM, the TGI (SNB-75 CNS) was greater than 10 µM and the TGI (SR leukemia) was greater than 10 µM. The TGI (SW-620 colon) was greater than 10 µM, the TGI (T-47D breast) was greater than 10 µM and the TGI (TK-10 renal) was greater than 10 µM. It also gave a TGI (U251 CNS) greater than 10 µM, a TGI (UACC-257 melanoma) greater than 10 µM and a TGI (UACC-62 melanoma) greater than 10 µM.
`O=[N+]([O-])c1ccc(NC(=S)N=Nc2c(O)[nH]c3ccc([N+](=O)[O-])cc23)cc1` showed a TGI (786-0 renal) of 32.3 µM, a TGI (A498 renal) of 32.7 µM and a TGI (A549 NSCLC) of 48.1 µM. It also gave a TGI (ACHN renal) of 74 µM, a TGI (BT-549 breast) of 33.7 µM and a TGI (CAKI-1 renal) of 43.2 µM. The TGI (CCRF-CEM leukemia) was 60.4 µM, the TGI (COLO 205 colon) was greater than 100 µM and the TGI (DU-145 prostate) was 49 µM. The TGI (EKVX NSCLC) was 63.6 µM, the TGI (HCC-2998 colon) was 35.9 µM and the TGI (HCT-116 colon) was 46.3 µM. The TGI (HCT-15 colon) was 46.8 µM, the TGI (HL-60(TB) leukemia) was 73.1 µM and the TGI (HOP-62 NSCLC) was 50.4 µM. It also gave a TGI (HOP-92 NSCLC) of 35.2 µM, a TGI (HS 578T breast) greater than 100 µM and a TGI (HT29 colon) of 65.6 µM. The TGI (IGROV1 ovarian) was 40 µM, the TGI (K-562 leukemia) was greater than 100 µM and the TGI (KM12 colon) was 37.6 µM. The TGI (LOX IMVI melanoma) was 49.1 µM, the TGI (M14 melanoma) was 41.9 µM and the TGI (MALME-3M melanoma) was 55.5 µM. For the same compound, the TGI (MCF7 breast) was 84.1 µM, the TGI (MDA-MB-231 breast) was 45 µM and the TGI (MDA-MB-435) was 38.7 µM. For the same compound, the TGI (MDA-N) was 41.7 µM, the TGI (MOLT-4 leukemia) was greater than 100 µM and the TGI (NCI-H226 lung) was 86.5 µM. The TGI (NCI-H23 lung) was 41.1 µM, the TGI (NCI-H460 lung) was 41.9 µM and the TGI (NCI-H522 lung) was 60.5 µM. For the same compound, the TGI (NCI/ADR-RES ovarian) was 48.6 µM, the TGI (OVCAR-3 ovarian) was 47.5 µM and the TGI (OVCAR-4 ovarian) was 40.8 µM. It also gave a TGI (OVCAR-5 ovarian) of 68 µM, a TGI (OVCAR-8 ovarian) greater than 100 µM and a TGI (PC-3 prostate) of 49.3 µM. The TGI (RPMI-8226 leukemia) was greater than 100 µM, the TGI (RXF 393 renal) was 37.1 µM and the TGI (SF-268 CNS) was 72.4 µM. For the same compound, the TGI (SF-295 CNS) was 45.1 µM, the TGI (SF-539 CNS) was greater than 100 µM and the TGI (SK-MEL-2 melanoma) was 35.8 µM. The TGI (SK-MEL-28 melanoma) was 80.7 µM, the TGI (SK-MEL-5 melanoma) was 30.7 µM and the TGI (SK-OV-3 ovarian) was 41.8 µM. The TGI (SN12C renal) was greater than 100 µM, the TGI (SNB-19 CNS) was 69.3 µM and the TGI (SNB-75 CNS) was 42.8 µM. The TGI (SR leukemia) was greater than 100 µM, the TGI (SW-620 colon) was greater than 100 µM and the TGI (T-47D breast) was 63.1 µM. For the same compound, the TGI (TK-10 renal) was 56.7 µM, the TGI (U251 CNS) was 50.8 µM and the TGI (UACC-257 melanoma) was 50.3 µM. The TGI (UACC-62 melanoma) was 49.1 µM and the TGI (UO-31 renal) was 45.1 µM.
